The record followed here is patent publication US9801922B2, “Compositions and methods of treating cancer” (UNIVERSITY OF IOWA RESEARCH FOUNDATION, priority 2011, dated 2017).

Data set [1] concerns SUM159 human breast cancer cells. The data set is described as follows: Clonogenic cell survival, SUM159. Format: cell-based. As to conditions: for cytotoxicity (clonogenic survival), in words: 500 nM AUR 15 min. How it is done:
FIGS. 1A-D: BSO, DTPP and AUR treated SUM159, MDA-MB231 and HMEC Clonogenic survival. In Panel A (SUM 159), B (MDA-MB231) and C(HMEC), 150,000 cells/dish SUM159 or MDA-MB231 and 300,000 cells/dish were plated in 60 mm tissue culture dishes. After 48 hours, cells were given fresh complete HMECs media and treated with 100 μM BSO+/1 μM DTPP for 24 hours. 500 nM AUR were added 15 mins before the trypsinization of cells for clonogenic survival assay. In panel A-C, The error bars represent mean±1 SD of n=1 treatment dishes done in 3 separate experiments where each treatment dish was used to prepare 6-10 replicate cloning dishes for analysis. *p<0.001 as compared to Control. […] Mice growing Sum159 xenograft tumors were treated with 100 μM DTPP in drinking water for 2 weeks followed by i.p. injections of BSO 675 mg/kg followed in 2 hrs with Au 2.7 mg/kg. The day following injections tumors were harvested, digested and stained for ALDH positive cells. Each bar represents an average of at least three tumors. Error bars are SEM. *p<0.05 vs. control.
FIG. 2: BSO and AUR treated SUM159 dose response Clonogenic survival. 150,000 cells/dish SUM159 were plated in 60 mm tissue culture dishes. After 48 hours, cells were given fresh complete HMECs media and treated with 100 μM BSO 24 hours. 500 nM AUR were added 15 mins, 30 mins, 45 mins, 1 hr, 1.5 hrs and 3 hrs before the trypsinization. Cells were then collected and plated for clonogenic survival. In panel A-C, The error bars represent mean±1 SD of n=1 treatment dishes done in 3 separate experiments where each treatment dish was used to prepare 6-10 replicate cloning dishes for analysis. *p<0.001 as compared to SUM159 Control. ^p<0.001 as compared to HMEC Control.
FIGS. 3A-3B: Clonogenic survival of SUM159 and MDA-MB231 cells treated with BSO, DTPP and AUR in the presence of 20 mM NAC. Asynchronously growing cultures of SUM159 (panel A) and MDA-MB231 (panel B) were plated as described in FIG. 1. After 48 hours, cells were given fresh complete HMECs media and treated with 100 μM BSO+/1 μM DTPP in the presence or absence of 20 mM NAC for 24 hours. 500 nM AUR were added 15 mins before the trypsinization. cells were then collected and plated for clonogenic survival. In panel A, B, The error bars represent mean±1SD of n=1 treatment dishes done in 3 separate experiments where each treatment dish was used to prepare 6-10 replicate cloning dishes for analysis. *p<0.001 as compared to W/O NAC Control. ^p<0.001 as compared to W/NAC Control.
FIG. 6: BSO, DTPP and AUR treated SUM159 in the presence of 100 U/ml PEGSOD+/PEGCAT Clonogenic survival. Asynchronously growing cultures of SUM159 were plated as described in FIG. 1. After 48 hours, cells were given fresh complete HMECs media and treated with 100 μM BSO+/1 μM DTPP in the presence or absence of PEGSOD+/PEGCAT (100 U/mL each) for 24 hours. Control received PEG alone (18 μM) for 24 hours. 500 nM AUR were added 15 mins before the trypsinization. Cells were then collected and plated for clonogenic survival. In panel A, B, The error bars represent mean±1 SD of n=1 treatment dishes done in 3 separate experiments where each treatment dish was used to prepare 6-10 replicate cloning dishes for analysis. *p<0.001 as compared to PEG alone Control. ^p<0.001 as compared to PEGCAT Control, $ p<0.001 as compared to PEGSOD+CAT Control.
Clonogenic cell survival: To determine whether the DTPP exposure alters the cell proliferation in MDA-MB231, SUM159 and HMECs, 150,000 cells/dish of MDA-MB231 and SUM159 cells, and 300,000 cells/dish HMECs were plated in 60 mm tissue culture dishes. After 48 hours, at 24 hours prior to each clonogenic survival experiment, media in all the dishes were changed to HMECs media and then treated with 100 μM BSO and 1 μM DTPP for 24 h. Cells were treated with AUR for 15 minutes prior to each clonogenic survival experiment. […]

The subject of the next data set is SUM159 cells. The data set can be described thus: Glutathione analysis (total GSH, GSSG). Format: cell-based, human. Conditions: for % GSSG: untreated 1.13%. The method, then: FIG. 18: Intracellular GSH&GSSG measured in BSO, DTPP, and AUR exposed SUM159 cells. Asynchronously growing cultures of SUM159 were plated and treated as described in FIG. 1. Cells were harvested and scraped in PBS at 4° C. Whole cell homogenates were used for biochemical analysis of total GSH & GSSG levels. Errors represent Mean ±1 SD of 4 samples from two separate experiments (n=4).
Glutathione analysis: SUM159 Cells were plated and treated with BSO, DTPP and AUR as described above. When cells were grown to 70-80% confluency on 100 mm dishes and scraped in PBS at 4° C., centrifuged, and the cell pellets were frozen at −20° C. until analysis. Samples were thawed and whole homogenates were prepared as described and total glutathione (GSH+GSSG) was determined using a recycling method (Spitz, D. R.; Malcolm, R. R.; Roberts, R. J. Cytotoxicity and metabolism of 4-hydroxy-2-nonenal and 2-nonenal in H2O2-resistant cell lines. Do aldehydic by-products of lipid peroxidation contribute to oxidative stress? Biochem J 267:453-459; 1990; Griffith, O. W. Determination of glutathione and glutathione disulfide using glutathione reductase and 2-vinylpyridine. Anal Biochem 106:207-212; 1980). All biochemical determinations were normalized to the protein content using the method of bicinchoninic acid protein assay.

As for `CC[PH](CC)(CC)[Au][S][C@@H]1O[C@H](COC(C)=O)[C@@H](OC(C)=O)[C@H](OC(C)=O)[C@H]1OC(C)=O` [AUR, S-triethylphosphinegold(I)-2,3,4,6-tetra-O-acetyl-1-thio-β-D-glucopyranoside], the “cytotoxicity (clonogenic survival), in words” value in data set [1] (100 μM BSO, 1 μM DTPP 24 h) is “did not cause any significant cytotoxicity”. For the same compound, in the data set on SUM159 cells, the “effect on glutathione metabolism, in words” value is given as “not capable of altering the glutathione metabolism”.
`CCCCS(=N)(=O)CCC(N)C(=O)O` [BSO, L-buthionine-[S,R]-sulfoximine, reference compound]: the “cytotoxicity (clonogenic survival), in words” value in data set [1] (100 μM BSO, 1 μM DTPP 24 h) is on record as “did not cause significantly cytotoxicity”. Besides, in the data set with SUM159 cells (24 hours), the “total GSH, in words” value was “significant decreases in total GSH”. For the same compound, in the data set with SUM159 cells, the “% GSSG” value was found to be 4.88%.
On to `CCCCCCCCCC[P+](c1ccccc1)(c1ccccc1)c1ccccc1` [DTPP, Decyl-Triphenylphosphonium], for which the “survival fraction (of control cells) in the presence of NAC” value in data set [1] (1 μM DTPP with 20 mM NAC, 24 hrs) is “at least 70%”. Also, the “decrease in cell survival / survival fraction compared to control” value in data set [1] (100 μM BSO and/or 1 μM DTPP for 24 hours) is recorded as 70%-80%. Moreover, the clonogenic cell killing result in data set [1] (100 μM BSO, 1 μM DTPP 24 h, 500 nM AUR 15 min (FIG. 1A)) was “at least 70%”. Also, the “clonogenic survival without PEGSOD+PEGCAT” value in data set [1] (PEG alone control) is given as 35%. The “clonogenic survival with PEGSOD+PEGCAT” value in data set [1] (PEGSOD+PEGCAT 100 U/ml each) was determined as 70%. Also, in the data set on SUM159 cells, the “increase in GSSG and % GSSG compared to untreated cells” value was approximately 3 fold; the “% GSSG” value stood at 3.65%. In the data set on SUM159 cells (untreated 0.06), the GSSG was 0.26 nmole GSSG/mg protein.
